Results: US12642768B2, “Lipid nanoparticles” (Beijing Jitai Life Sciences Ltd, priority 2022, dated 2026)

What was measured:
[1] = tested on: C57BL/6 mice; assay: Animal experiment: in vivo bioluminescence after i.v. lipid nanoparticles encapsulated with luciferase mRNA; details: compound 20 vs. D1, compound 46 vs. D2
Method: The delivery effect and safety of nanoparticles encapsulated with luciferase mRNA (Trilink, L-7202) in mice were evaluated. The test mice were SPF-grade C57BL/6 mice, female, 6-8 weeks old, weighing 18-22 g, and were purchased from SPF (Beijing) Biotechnology Co., Ltd. All animals were acclimatized for more than 7 days prior to the experiment, and had free access to food and water during the experiment. The conditions include alternating light and dark for 12/12 h, the indoor temperature of 20-26° C. and the humidity of 40-70%. The mice were randomly grouped. […] The anesthetized mice were placed in IVIS for fluorescence imaging, and data acquisition and analysis were performed on the concentrated distribution area of fluorescence.
The in vivo delivery efficiency of lipid nanoparticle carriers was expressed as the mean values of fluorescence intensity and total photon count in different animals within the same subject group, as shown in Table 5. Higher values of fluorescence intensity and total photon count indicate higher in vivo delivery efficiency of this mRNA fragment by lipid nanoparticles. […]

[2] = Particle size and PDI of lipid nanoparticles by dynamic light scattering; format: physicochemical; details: for Particle size dispersity (PDI): LNP 50:38.5:10:1.5, N/P 6, luciferase mRNA
Method: (§1) Lipid nanoparticles were prepared by (1) dissolving and mixing ionizable lipid compounds, cholesterol, phospholipids and polyethylene glycolated lipids in ethanol at (molar percentages) 50%, 38.5%, 10% and 1.5%, respectively; (2) dissolving the mRNA active ingredient in 25 mM sodium acetate solution (pH=4.5); (3) using an automated high-throughput microfluidic system to mix the organic phase containing the lipid mixture and the aqueous phase containing the mRNA component in the flow ratio range of 1:1 to 1:4 at a mixing speed of 10 mL/min to 18 mL/min; (4) the prepared lipid nanoparticles (N/P ratio of 6) were diluted with phosphate buffer solution and the nanoparticle solutions were ultrafiltered to the original preparation volume using ultrafiltration tubes (purchased from Millipore) with a cut-off molecular weight of 30 kDa; and (5) the obtained nanoparticles were filtered through a sterile 0.2 μm filter membrane and then stored in a sealed glass vial at low temperature.
The particle size and particle size dispersity index (PDI) of the prepared lipid nanoparticles were measured using a Zetasizer Pro (purchased from Malvern Instruments Ltd) and a DynaPro NanoStar (purchased from Wyatt) dynamic light scattering instrument. The degree of RNA encapsulation by lipid nanoparticles was characterized by the Encapsulation Efficiency %, which reflects the degree of binding of lipid nanoparticles to RNA fragments. This parameter was measured by the method of Quant-it™ RiboGreen RNA Assay (purchased from Invitrogen). Lipid nanoparticle samples were diluted in TE buffer (10 mM Tris-HCl, 1 mM EDTA, pH=7.5). A portion of the sample solution was removed, to which 0.5% Triton (Triton X-100) was added, and then allowed to stand at 37° C. for 30 minutes. Immediately after the addition of RIBOGREEN® reaction solution, the fluorescence values were read on a Varioskan LUX multifunctional microplate reader (purchased from Thermofisher) at 485 nm for absorption and 528 nm for emission to give the encapsulation efficiency values.

[3] = Encapsulation efficiency by Quant-it RiboGreen RNA Assay; format: physicochemical; details: LNP 50:38.5:10:1.5, N/P 6, luciferase mRNA
Method: as §1
The particle size and particle size dispersity index (PDI) of the prepared lipid nanoparticles were measured using a Zetasizer Pro (purchased from Malvern Instruments Ltd) and a DynaPro NanoStar (purchased from Wyatt) dynamic light scattering instrument. […] This parameter was measured by the method of Quant-it™ RiboGreen RNA Assay (purchased from Invitrogen). […]

| SMILES | in vivo delivery efficiency compared with the molecule without tetramethyl [1] | Particle size dispersity (PDI) [2] | Particle size (nm) ([2]; LNP ionizable lipid:cholesterol:DSPC:DMG-PEG2000 50:38.5:10:1.5, N/P 6, luciferase mRNA) | Encapsulation efficiency (%) [3] [%] |
| --- | --- | --- | --- | --- |
| CCCCCCCCCOC(=O)C(C)(C)CCCCCC(CCCCCC(C)(C)C(=O)OCC(CCCCC)CCCCCCC)OC(=O)CCCN(C)C (stereo not shown) [Compound 46] | significantly increased in vivo delivery efficiency | 0.09 |  |  |
| CCCCCCCCCSC(=O)C(C)(C)CCCCCC(CCCCCC(C)(C)C(=O)OCC#CCCC(CCCC)CCCC)OC(=O)CCCN(C)C (stereo not shown) [Compound 119] |  | 0.05 | 80.98 | 86.92 |
| CCCCC/C=C\C/C=C\CCCCCCCCC(CCCCCCCC/C=C\C/C=C\CCCCC)OC(=O)CCCN(C)C [DLin-MC3-DMA, reference compound] |  | 0.04 |  | 95.62 |
